{"source": "ChEMBL document CHEMBL4706559", "about": "“New indolylarylsulfone non-nucleoside reverse transcriptase inhibitors show low nanomolar inhibition of single and double HIV-1 mutant strains” (Eur J Med Chem, 2020)", "key": {"[1]": {"system": "Human immunodeficiency virus 1", "experiment": "Inhibition of HIV1 p66/p51 reverse transcriptase K103N/Y181C double mutant assessed as apparent Km of substrate at 150 nM using fixed concentration of poly(rA)/oligo(dT) as templates in presence of 2 to 100 uM of [3H]dTTP by Michaelis-Menten analysis (reference value: 9.2 +/- 1.4 uM)"}, "[2]": {"system": "Human immunodeficiency virus 1", "experiment": "Ratio of Koff of HIV-1 p66/p51 reverse transcriptase K103N/Y181C double mutant/nucleic acid/dTTP ternary complex to Koff of free form of HIV-1 p66/p51 reverse transcriptase using poly(rA)/oligo(dT) as templates in presence of [3H]dTTP"}, "[3]": {"experiment": "Inhibition of RNA-dependent DNA polymerase activity of recombinant HIV-1 p66/p51 reverse transcriptase K103N/Y181C mutant assessed as inhibition of [3H]dTTP incorporation using poly(rA)/oligo(dT) as templates incubated for 15 mins by MicroBeta scintillation counting method", "set-up": "species or system Human immunodeficiency virus 1"}, "[4]": {"system": "Human immunodeficiency virus 1", "experiment": "Inhibition of HIV1 p66/p51 reverse transcriptase K103N/Y181C double mutant assessed as apparent Vmax at 150 nM using 10 to 500 uM poly(rA)/oligo(dT) as templates in presence of fixed concentration of [3H]dTTP by Michaelis-Menten analysis (reference value: 12 +/- 1%)"}, "[5]": {"experiment": "Inhibition of RNA-dependent DNA polymerase activity of recombinant HIV-1 p66/p51 reverse transcriptase Y188L mutant assessed as inhibition of [3H]dTTP incorporation using poly(rA)/oligo(dT) as templates incubated for 15 mins by MicroBeta scintillation counting method", "set-up": "species or system Human immunodeficiency virus 1"}, "[6]": {"system": "Human immunodeficiency virus 1", "experiment": "Inhibition of HIV1 p66/p51 reverse transcriptase K103N/Y181C double mutant assessed as apparent Vmax at 300 nM using fixed concentration of poly(rA)/oligo(dT) as templates in presence of 2 to 100 uM of [3H]dTTP by Michaelis-Menten analysis (reference value: 9.6 +/- 0.4%)"}, "[7]": {"system": "Human immunodeficiency virus 1", "experiment": "Ratio of Kon of HIV-1 p66/p51 reverse transcriptase K103N/Y181C double mutant/nucleic acid/dTTP ternary complex to Kon of free form of HIV-1 p66/p51 reverse transcriptase using poly(rA)/oligo(dT) as templates in presence of [3H]dTTP"}, "[8]": {"biological_target": "Human immunodeficiency virus type 1 reverse transcriptase (Human immunodeficiency virus 1) (UniProt Q72547)", "experiment": "Binding affinity to wild type HIV-1 p66/p51 reverse transcriptase/nucleic acid binary complex assessed as dissociation constant using poly(rA)/oligo(dT) as templates in presence of [3H]dTTP"}, "[9]": {"biological_target": "Human immunodeficiency virus type 1 reverse transcriptase (Human immunodeficiency virus 1) (UniProt Q72547)", "experiment": "Binding affinity to wild type HIV-1 p66/p51 reverse transcriptase/nucleic acid/dTTP ternary complex assessed as dissociation constant using poly(rA)/oligo(dT) as templates in presence of [3H]dTTP"}, "[10]": {"biological_target": "Human immunodeficiency virus type 1 reverse transcriptase (Human immunodeficiency virus 1) (UniProt Q72547)", "experiment": "Ratio of Koff of wild type HIV-1 p66/p51 reverse transcriptase/nucleic acid binary complex to Koff of free form of wild type HIV-1 p66/p51 reverse transcriptase using poly(rA)/oligo(dT) as templates in presence of [3H]dTTP"}, "[11]": {"system": "Human immunodeficiency virus 1", "experiment": "Inhibition of HIV1 p66/p51 reverse transcriptase K103N/Y181C double mutant assessed as apparent Vmax at 300 nM using 10 to 500 uM poly(rA)/oligo(dT) as templates in presence of fixed concentration of [3H]dTTP by Michaelis-Menten analysis (reference value: 12 +/- 1%)"}, "[12]": {"biological_target": "Human immunodeficiency virus type 1 reverse transcriptase (Human immunodeficiency virus 1) (UniProt Q72547)", "experiment": "Binding affinity to wild type HIV-1 p66/p51 reverse transcriptase/nucleic acid binary complex assessed as association constant using poly(rA)/oligo(dT) as templates in presence of [3H]dTTP"}, "[13]": {"biological_target": "Human immunodeficiency virus type 1 reverse transcriptase (Human immunodeficiency virus 1) (UniProt Q72547)", "experiment": "Inhibition of wild type HIV1 p66/p51 reverse transcriptase assessed as apparent Vmax at 150 nM using 10 to 500 uM poly(rA)/oligo(dT) as templates in presence of fixed concentration of [3H]dTTP by Michaelis-Menten analysis (reference value: 10 +/- 0.5%)"}, "[14]": {"biological_target": "Human immunodeficiency virus type 1 reverse transcriptase (Human immunodeficiency virus 1) (UniProt Q72547)", "experiment": "Inhibition of wild type HIV1 p66/p51 reverse transcriptase assessed as apparent Vmax at 75 nM using 10 to 500 uM poly(rA)/oligo(dT) as templates in presence of fixed concentration of [3H]dTTP by Michaelis-Menten analysis (reference value: 10 +/- 0.5%)"}, "[15]": {"system": "Human immunodeficiency virus 1", "experiment": "Ratio of Koff of HIV-1 p66/p51 reverse transcriptase K103N/Y181C double mutant/nucleic acid/dTTP ternary complex to Koff of HIV-1 p66/p51 reverse transcriptase/nucleic acid binary complex using poly(rA)/oligo(dT) as templates in presence of [3H]dTTP"}, "[16]": {"biological_target": "Human immunodeficiency virus type 1 reverse transcriptase (Human immunodeficiency virus 1) (UniProt Q72547)", "experiment": "Synergistic inhibition of wild type HIV-1 p66/p51 reverse transcriptase assessed as combination index using poly(rA)/oligo(dT) as templates in presence of [3H]dTTP preincubated with enzyme and AZTTP followed by substrate addition"}, "[17]": {"system": "Human immunodeficiency virus 1", "experiment": "Antiviral activity against HIV1 harboring RT Y181C mutant infected in human MT4 cells assessed as protection against virus-induced cytopathic effect by MTT assay", "format": "functional, organism-based", "settings": "Human immunodeficiency virus 1, MT4"}, "[18]": {"system": "Human immunodeficiency virus 1", "experiment": "Inhibition of HIV1 p66/p51 reverse transcriptase K103N/Y181C double mutant assessed as apparent Vmax at 75 nM using 10 to 500 uM poly(rA)/oligo(dT) as templates in presence of fixed concentration of [3H]dTTP by Michaelis-Menten analysis (reference value: 12 +/- 1%)"}, "[19]": {"system": "Human immunodeficiency virus 1", "experiment": "Synergistic inhibition of HIV-1 p66/p51 reverse transcriptase K103N/Y181C double mutant assessed as combination index using poly(rA)/oligo(dT) as templates in presence of [3H]dTTP preincubated with enzyme and AZTTP followed by substrate addition", "format": "functional"}, "[20]": {"system": "Human immunodeficiency virus 1", "experiment": "Binding affinity to HIV-1 p66/p51 reverse transcriptase K103N/Y181C double mutant/nucleic acid/dTTP ternary complex assessed as association constant using poly(rA)/oligo(dT) as templates in presence of [3H]dTTP"}, "[21]": {"experiment": "Cytotoxicity against human MT-4 cells assessed as reduction in cell viability by MTT assay", "format": "cell-based, MT4"}, "[22]": {"experiment": "Binding affinity to HIV-1 p66/p51 reverse transcriptase K103N/Y181C double mutant/nucleic acid/dTTP ternary complex using poly(rA)/oligo(dT) as templates in presence of [3H]dTTP", "set-up": "species or system Human immunodeficiency virus 1"}, "[23]": {"biological_target": "Human immunodeficiency virus type 1 reverse transcriptase (Human immunodeficiency virus 1) (UniProt Q72547)", "experiment": "Ratio of Koff of wild type HIV-1 p66/p51 reverse transcriptase/nucleic acid binary complex to Koff of wild type HIV-1 p66/p51 reverse transcriptase/nucleic acid/dTTP ternary complex using poly(rA)/oligo(dT) as templates in presence of [3H]dTTP"}, "[24]": {"system": "Human immunodeficiency virus 1", "experiment": "Inhibition of HIV1 p66/p51 reverse transcriptase K103N/Y181C double mutant assessed as apparent Vmax at 150 nM using fixed concentration of poly(rA)/oligo(dT) as templates in presence of 2 to 100 uM of [3H]dTTP by Michaelis-Menten analysis (reference value: 9.6 +/- 0.4%)"}, "[25]": {"experiment": "Binding affinity to free form of HIV-1 p66/p51 reverse transcriptase K103N/Y181C double mutant using poly(rA)/oligo(dT) as templates in presence of [3H]dTTP", "set-up": "species or system Human immunodeficiency virus 1"}}, "data": [{"smiles": "Cc1cc(C)cc(S(=O)(=O)c2c(C(=O)NCc3ccccc3O)[nH]c3ccc(Cl)cc23)c1", "values": [{"measurement": "Km", "setting": "[1]", "value": 2.2, "unit": "µM"}, {"measurement": "Ratio", "setting": "[2]", "value": 4}, {"measurement": "IC50", "setting": "[3]", "value": 76, "unit": "nM"}, {"measurement": "Vmax(app)", "setting": "[4]", "value": 6, "unit": "%"}, {"measurement": "IC50", "setting": "[5]", "value": 61, "unit": "nM"}, {"measurement": "Vmax(app)", "setting": "[6]", "value": 1.5, "unit": "%"}, {"measurement": "Ratio", "setting": "[7]", "value": 4}, {"measurement": "K", "setting": "[8]", "value": "35 10^-3/s"}, {"measurement": "K", "setting": "[9]", "value": "4.1 10^-3/s"}, {"measurement": "Ratio", "setting": "[10]", "value": 8}, {"measurement": "Vmax(app)", "setting": "[11]", "value": 3.2, "unit": "%"}, {"measurement": "K", "setting": "[12]", "value": "96 10^-5/nM/s"}, {"measurement": "Vmax(app)", "setting": "[13]", "value": 1.2, "unit": "%"}, {"measurement": "Vmax(app)", "setting": "[14]", "value": 3.3, "unit": "%"}, {"measurement": "Ratio", "setting": "[15]", "value": 4}, {"measurement": "CI", "setting": "[16]", "value": 1.15}, {"measurement": "EC50", "setting": "[17]", "value": "< 0.7", "unit": "nM"}, {"measurement": "Vmax(app)", "setting": "[18]", "value": 7.7, "unit": "%"}, {"measurement": "CI", "setting": "[19]", "value": 0.81}, {"measurement": "K", "setting": "[20]", "value": "42 10^-5/nM/s"}, {"measurement": "CC50", "setting": "[21]", "value": 23800, "unit": "nM"}, {"measurement": "Ki", "setting": "[22]", "value": 78, "unit": "nM"}, {"measurement": "Ratio", "setting": "[23]", "value": 8}, {"measurement": "Vmax(app)", "setting": "[24]", "value": 2.9, "unit": "%"}, {"measurement": "Ki", "setting": "[25]", "value": 137, "unit": "nM"}]}]}
